From PubChem BioAssay AID2060336 (Molecular Pharmacology Branch, DTP, NCI, 2025)
“And” between values parts separate entries of the source, which are not always exact repeats. Identical values can stand only once.

System: 958767-090-R-J1-PDC spheroid growth
Experiment: Anticancer human tumor 958767-090-R-J1-PDC patient-derived head and neck squamous carcinoma cell line growth inhibition [IpAb]
Settings: spheroids with HUVEC and MSC; for viability, T/C: stronger effect = lower value
Source text: Combinatorial screen of targeted agents with ipatasertib and abemaciclib in multi-cell type tumor spheroids
A high-throughput screen of multi-cell type tumor spheroids was designed to identify active combinations of targeted small molecules and ipatasertib or abemaciclib. Complex spheroids include a stromal component modeled by human endothelial cells (HUVEC) and fibroblasts modeled by human mesenchymal stem cells (MSCs). The concentration ranges selected for each drug and investigational agent were based upon clinically achievable concentrations if the clinical Cmax of the agent was known.
Compounds. The drugs and investigational agents: ipatasertib (NSC767898), abemaciclib(NSC768073), selumetinib (NSC741078), trametinib (758246), adavosertib (NSC754352), everolimus (NSC733504), sapanisertib (NSC764658), vemurafenib (NSC761431), venetoclax (NSC766270), copanlisib (NSC809693), apelisib (NSC765974), palbociblib (NSC758247), vemurafenib (NSC761431), dabrafenib (NSC764134), ravoxertinib (NSC781343), BMS-387032 (NSC767048), sotorasib (NSC818433), talazoparib (NSC767125) and afursertib (NSC778305), were obtained from the National Cancer Institute (NCI) Developmental Therapeutics Program Chemical Repository. The FDA-approved anticancer drug set is available from the NCI Developmental Therapeutics Program. […] The stock solutions were prepared in dimethyl sulfoxide (DMSO, Sigma-Aldrich, St. Louis, MO, cat. D2650) at 800-fold the tested concentration and stored at -70 degrees C prior to their use. All drugs and investigational agents were tested over a range starting from a high concentration at or near the clinical Cmax and decreasing in half-log increments. If the clinical Cmax for an agent had not been determined, the highest concentration tested was 10 microM.
NCI60 Cell Culture. NCI60 cell lines were obtained from the NCI Developmental Therapeutics Program Tumor Repository. For each lot of cells, the Repository performed Applied Biosystems AmpFLSTR Identifiler testing with PCR amplification to confirm consistency with the published Identifier STR profile for each cell line. Cells were kept in continuous culture for no more than 20 passages. The optimal seeding densities for each of the cell lines at each time point assessed were determined prior to performing the concentration response studies. Briefly, the NCI60 human tumor lines were grown as monolayers in RPMI 1640 medium supplemented with 10% FBS and 2 mmol/L L-glutamine.
An additional 9 lines were from the NCI60 cell line panel including MDA-MB-231 breast carcinoma, MDA-MB-468 breast carcinoma, MCF7 breast carcinoma, Hs578T breast carcinoma, MALME-3M melanoma, SK-MEL-2 melanoma, SK-OV-3 ovarian carcinoma, DU-145 prostate carcinoma, PC-3 prostate carcinoma, all cell lines along with major genetic alterations are listed on Table 2. Pooled donor human umbilical vein endothelial cells (HUVEC, Lonza, cat. CC-2519) and human mesenchymal stem cells (hMSC, Lonza, cat. PT-2501) were purchased from Lonza (Walkersville, MD).
PDMR cell lines were grown in complete medium (DC medium): Dulbecco's modified Eagle's medium (DMEM)/F12 supplemented with 5% fetal bovine serum (FBS), 2 mM L-glutamine, 100 U/mL penicillin and 100 µg/ml streptomycin, 0.4 µg/ml hydrocortisone, 10 ng/ml epidermal growth factor (EGF) recombinant human protein, 24 µg/mL adenine, and 0.1 mg/mL primocin. During culture from frozen stock vials, PDMR cells were cultured in the same medium containing 10 µM Y-27632 (see Table 3). The PDCs were cultured in complete DMEM/F12 media without 10 microM Y-27632 dihydrochloride for at least two passages prior to the screen. The pooled donor HUVEC and hMSC were cultured in endothelial cell growth medium 2 (PromoCell, Heidelberg, Germany, cat. C-22011) and mesenchymal stem cell growth medium 2 (PromoCell, cat. C-28009), respectively. For all experiments, HUVEC and hMSC were used at passages </=5.
[…]
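Note: spheroids exposed to agents for 7 days.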
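Throughout, for viability, T/C: 100% = DMSO vehicle control wells.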

Structure (SMILES) | viability, T/C (compound 0.0316 µM) | viability, T/C (compound 0.1 µM) | viability, T/C (compound 0.316 µM) | viability, T/C (compound 1 µM) | viability, T/C (compound 3.16 µM) | viability, T/C (compound 10 µM) | IC50 (curve of compound) | further results
C=CC(=O)N1CCN(c2nc(=O)n(-c3c(C)ccnc3C(C)C)c3nc(-c4c(O)cccc4F)c(F)cc23)C(C)C1 (stereo unspecified) | 99.7% and 95% | 93.8% and 88.2% | 97.1% and 102% | 94.9% and 107% | 83.6% and 75.9% | 39.8% | 7.66 µM and 7.22 µM | –
C=CCn1c(=O)c2cnc(Nc3ccc(N4CCN(C)CC4)cc3)nc2n1-c1cccc(C(C)(C)O)n1 | 86.2% and 89.5% | 72.7% and 72.8% | 33.4% and 47.7% | 27.7% and 37.4% | 25% and 28.7% | 21.1% and 20.1% | 0.195 µM and 0.344 µM | –
CC(=O)c1c(C)c2cnc(Nc3ccc(N4CCNCC4)cn3)nc2n(C2CCCC2)c1=O | – | – | – | – | – | – | > 0.3 µM | viability, T/C (compound 0.000949 µM): 76.6% and 103%; viability, T/C (compound 0.003 µM): 66.5% and 83.4%; viability, T/C (compound 0.00949 µM): 62.2% and 75.6%; viability, T/C (compound 0.03 µM): 62.2% and 68.8%; viability, T/C (compound 0.0949 µM): 63.7% and 65.3%; viability, T/C (compound 0.3 µM): 54.1% and 51.8%
CC(C)(C)c1cnc(CSc2cnc(NC(=O)C3CCNCC3)s2)o1 | – | – | – | – | – | – | 0.159 µM and 0.172 µM | viability, T/C (compound 0.00949 µM): 106% and 118%; viability, T/C (compound 0.03 µM): 97% and 116%; viability, T/C (compound 0.0949 µM): 85.4% and 100%; viability, T/C (compound 0.3 µM): 6.79% and 3.17%; viability, T/C (compound 0.949 µM): 2.83% and 2.21%; viability, T/C (compound 3 µM): 2.61% and 2.81%
CC(C)NCC(C(=O)N1CCN(c2ncnc3c2C(C)CC3O)CC1)c1ccc(Cl)cc1 (stereo unspecified) | – | 90.6% [middle of 13 runs] | – | 50.7% [middle of 13 runs] | – | – | – | –
CC(C)n1nc(-c2ccc3oc(N)nc3c2)c2c(N)ncnc21 | 36.9% and 34.2% | 39.7% and 32.1% | – | – | – | – | 0.0139 µM and 0.0119 µM | viability, T/C (compound 0.000316 µM): 84.9% and 95.3%; viability, T/C (compound 0.001 µM): 89.9% and 94.5%; viability, T/C (compound 0.00316 µM): 74.5% and 73.8%; viability, T/C (compound 0.01 µM): 55.9% and 54.9%
CC1(C)CCC(CN2CCN(c3ccc(C(=O)NS(=O)(=O)c4ccc(NCC5CCOCC5)c([N+](=O)[O-])c4)c(Oc4cnc5[nH]ccc5c4)c3)CC2)=C(c2ccc(Cl)cc2)C1 | 79.8% and 92% | 86.8% and 104% | 90.3% and 99% | 93.9% and 100% | 105% and 112% | 5.27% and 4.22% | 5.49 µM and 5.83 µM | –
CCCS(=O)(=O)Nc1ccc(F)c(C(=O)c2c[nH]c3ncc(-c4ccc(Cl)cc4)cc23)c1F | 86.3% and 103% | 93.5% and 92.7% | 92.7% and 98.5% | 94.9% and 96% | 98.5% and 96.4% | 65.5% and 66.7% | > 10 µM | –
CCN1CCN(Cc2ccc(Nc3ncc(F)c(-c4cc(F)c5nc(C)n(C(C)C)c5c4)n3)nc2)CC1 | – | 63.6% [middle of 13 runs] | – | 80.7% [middle of 12 runs] | – | – | – | IC50 (compound alone, run of 06/01/2021): > 1 µM
COc1c(OCCCN2CCOCC2)ccc2c3n(c(=NC(=O)c4cnc(N)nc4)nc12)CCN3 | 34.6% and 39.4% | 15.9% and 25.2% | 8.95% and 9.82% | 4.88% and 4.05% | – | – | 0.0107 µM and 0.0182 µM | viability, T/C (compound 0.00316 µM): 64.4% and 71.9%; viability, T/C (compound 0.01 µM): 50% and 60.7%
Cc1nc(NC(=O)N2CCCC2C(N)=O)sc1-c1ccnc(C(C)(C)C(F)(F)F)c1 (stereo unspecified) | 85.3% and 75% | 68.5% and 71.4% | 48.5% and 42.7% | 32.3% and 36.4% | 22.2% and 22.6% | 9.48% and 9.72% | 0.304 µM and 0.311 µM | –
Cn1cnc2c(F)c(Nc3ccc(Br)cc3Cl)c(C(=O)NOCCO)cc21 | – | – | – | – | – | – | 0.0284 µM and 0.0437 µM | viability, T/C (compound 0.00949 µM): 73% and 64.2%; viability, T/C (compound 0.03 µM): 48.8% and 52.3%; viability, T/C (compound 0.0949 µM): 32.5% and 42.5%; viability, T/C (compound 0.3 µM): 30.8% and 35.8%; viability, T/C (compound 0.949 µM): 31% and 28.7%; viability, T/C (compound 3 µM): 17.2% and 19.8%
Cn1ncc(Cl)c1-c1cc(C(=O)NC(CN)Cc2cccc(F)c2)sc1Cl (stereo unspecified) | 81.8% and 95% | 73.2% and 88.4% | 68.2% and 60.5% | 57.1% and 44.8% | 39% and 31.4% | 0.18% and 0.23% | 1.54 µM and 0.837 µM | –
Cn1nccc1Nc1nccc(-c2ccn(C(CO)c3ccc(Cl)c(F)c3)c(=O)c2)n1 (stereo unspecified) | 92.1% and 96.5% | 72.6% and 82.8% | 71.3% and 72.6% | 55.1% and 69.1% | 54.4% and 50% | 21.6% and 26.4% | 2 µM and 2.91 µM | –
Cn1ncnc1[C@H]1c2n[nH]c(=O)c3cc(F)cc(c23)N[C@@H]1c1ccc(F)cc1 | 79.7% and 80.1% | 70.6% and 68.1% | – | – | – | – | > 0.1 µM | viability, T/C (compound 0.000316 µM): 123% and 91.8%; viability, T/C (compound 0.001 µM): 81.7% and 109%; viability, T/C (compound 0.00316 µM): 80.4% and 90.1%; viability, T/C (compound 0.01 µM): 73.3% and 91.3%
